Test results published in US11780893B2, “Kv1.3 blockers” (Zealand Pharma A/S, priority 2019, dated 2023).
Bridge positions count the residues as written; N and C are the ends. Square brackets hold non-standard residues; d marks the D form. Peptide text beside a SMILES is read from it. Nle = CCCC[C@H](N)C(=O)O

How the values were obtained:
[1] = target: T1, human Kv1.3 voltage-gated K+ channel (Homo sapiens, UniProt P22001); assay: cell-based; settings: inhibition of thallium flux, CHO-DUKX cells with human Kv1.3; read-out: IC50
T1 construct: host or cells: CHO-DUKX

Kv1.3 = target: T2, Kv1.3 (Homo sapiens, UniProt P22001); assay: cell-based; settings: CHO cells, whole-cell patch clamp; read-out: Potency IC50 (nM) Kv1.3
T2 construct: expressed in transfected cells; host or cells: Chinese Hamster Ovary (CHO)

Rat whole blood = Rat whole blood (Rattus norvegicus, UniProt P15384)
Kv1.1 = target: T3, Kv1.1 (Homo sapiens, UniProt Q09470); assay: cell-based
T3 construct: expressed in transfected cells; host or cells: Chinese Hamster Ovary (CHO)

Kv1.2 = target: T4, Kv1.2 (Homo sapiens, UniProt P16389); assay: cell-based; settings: for IC50: CHO cells, whole-cell patch clamp, read-out: Potency IC50 (nM) Kv1.2
T4 construct: expressed in transfected cells; host or cells: Chinese Hamster Ovary (CHO)

Kv1.6 = target: T5, Kv1.6 (Homo sapiens, UniProt P17658); assay: cell-based; settings: for IC50: CHO cells, whole-cell patch clamp, read-out: Potency IC50 (nM) Kv1.6
T5 construct: expressed in transfected cells; host or cells: Chinese Hamster Ovary (CHO)
T5 sequence (P17658 whole entry): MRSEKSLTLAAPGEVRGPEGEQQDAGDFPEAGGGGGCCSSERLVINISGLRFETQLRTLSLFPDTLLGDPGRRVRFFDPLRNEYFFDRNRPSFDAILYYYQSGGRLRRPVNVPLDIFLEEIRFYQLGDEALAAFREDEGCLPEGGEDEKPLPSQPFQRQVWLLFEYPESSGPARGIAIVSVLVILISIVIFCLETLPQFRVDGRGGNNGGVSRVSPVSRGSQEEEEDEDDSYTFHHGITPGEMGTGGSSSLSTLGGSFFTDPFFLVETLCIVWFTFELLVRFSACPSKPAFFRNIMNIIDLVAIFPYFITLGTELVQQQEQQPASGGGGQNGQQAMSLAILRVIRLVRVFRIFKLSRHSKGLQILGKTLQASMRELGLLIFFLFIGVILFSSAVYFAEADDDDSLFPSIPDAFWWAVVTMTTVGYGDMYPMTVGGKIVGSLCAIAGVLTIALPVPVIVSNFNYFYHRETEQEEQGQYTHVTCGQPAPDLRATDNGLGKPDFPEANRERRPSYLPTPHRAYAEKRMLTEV

T2 sequence (P22001 whole entry): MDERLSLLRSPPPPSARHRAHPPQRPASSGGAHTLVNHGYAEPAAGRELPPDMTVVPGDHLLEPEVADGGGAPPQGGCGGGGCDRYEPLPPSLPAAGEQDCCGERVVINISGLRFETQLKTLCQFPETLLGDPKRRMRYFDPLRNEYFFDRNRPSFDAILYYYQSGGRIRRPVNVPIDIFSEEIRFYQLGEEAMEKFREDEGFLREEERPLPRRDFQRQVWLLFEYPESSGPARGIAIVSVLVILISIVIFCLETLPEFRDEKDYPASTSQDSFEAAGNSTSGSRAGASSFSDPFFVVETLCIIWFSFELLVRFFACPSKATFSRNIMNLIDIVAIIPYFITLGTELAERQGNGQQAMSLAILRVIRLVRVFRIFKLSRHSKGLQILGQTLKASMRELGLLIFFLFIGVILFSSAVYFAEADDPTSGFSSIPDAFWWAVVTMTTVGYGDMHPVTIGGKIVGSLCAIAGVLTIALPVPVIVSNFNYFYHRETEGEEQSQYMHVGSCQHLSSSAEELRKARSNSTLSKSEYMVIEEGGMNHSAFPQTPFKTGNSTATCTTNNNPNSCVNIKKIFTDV
T1 sequence (P22001 whole entry): as above
Sequence of Rat whole blood (P15384 whole entry): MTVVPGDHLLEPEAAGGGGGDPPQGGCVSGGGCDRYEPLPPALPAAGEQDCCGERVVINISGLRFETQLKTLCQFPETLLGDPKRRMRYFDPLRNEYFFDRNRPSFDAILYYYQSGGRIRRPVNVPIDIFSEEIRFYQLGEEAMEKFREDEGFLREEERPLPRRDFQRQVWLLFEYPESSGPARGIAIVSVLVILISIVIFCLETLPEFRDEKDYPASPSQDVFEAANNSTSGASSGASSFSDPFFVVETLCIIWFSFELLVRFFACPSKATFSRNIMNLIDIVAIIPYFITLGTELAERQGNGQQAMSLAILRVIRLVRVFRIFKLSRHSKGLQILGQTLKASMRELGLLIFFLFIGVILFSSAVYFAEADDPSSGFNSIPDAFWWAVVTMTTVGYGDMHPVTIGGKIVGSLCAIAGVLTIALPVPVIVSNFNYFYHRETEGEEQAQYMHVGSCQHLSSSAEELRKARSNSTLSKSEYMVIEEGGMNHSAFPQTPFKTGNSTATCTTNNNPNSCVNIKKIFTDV
T4 sequence (P16389 whole entry): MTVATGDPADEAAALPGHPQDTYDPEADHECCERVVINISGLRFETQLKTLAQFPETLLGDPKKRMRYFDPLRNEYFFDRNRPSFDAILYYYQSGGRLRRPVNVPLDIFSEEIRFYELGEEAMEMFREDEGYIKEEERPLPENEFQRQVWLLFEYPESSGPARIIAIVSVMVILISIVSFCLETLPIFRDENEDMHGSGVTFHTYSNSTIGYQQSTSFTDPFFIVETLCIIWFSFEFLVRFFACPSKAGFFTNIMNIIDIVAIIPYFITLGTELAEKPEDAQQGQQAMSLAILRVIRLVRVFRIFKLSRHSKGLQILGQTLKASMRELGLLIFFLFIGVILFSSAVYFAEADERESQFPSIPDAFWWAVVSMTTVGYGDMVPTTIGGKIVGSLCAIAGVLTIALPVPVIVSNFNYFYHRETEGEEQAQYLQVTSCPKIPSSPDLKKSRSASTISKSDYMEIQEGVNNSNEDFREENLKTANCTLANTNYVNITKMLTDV
T3 sequence (Q09470 whole entry): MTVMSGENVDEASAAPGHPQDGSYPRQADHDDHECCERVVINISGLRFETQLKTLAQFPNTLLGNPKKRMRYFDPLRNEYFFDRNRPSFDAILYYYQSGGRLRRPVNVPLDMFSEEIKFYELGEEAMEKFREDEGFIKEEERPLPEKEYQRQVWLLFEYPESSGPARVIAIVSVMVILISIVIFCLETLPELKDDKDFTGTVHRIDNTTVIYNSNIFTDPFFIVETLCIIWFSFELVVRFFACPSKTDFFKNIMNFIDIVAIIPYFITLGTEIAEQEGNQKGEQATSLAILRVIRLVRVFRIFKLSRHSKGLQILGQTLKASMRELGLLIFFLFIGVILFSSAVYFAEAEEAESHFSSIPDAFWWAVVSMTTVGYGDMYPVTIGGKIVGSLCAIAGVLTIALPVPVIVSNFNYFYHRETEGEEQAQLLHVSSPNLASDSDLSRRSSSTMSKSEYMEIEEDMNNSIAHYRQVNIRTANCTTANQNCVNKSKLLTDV

Row | SMILES | IC50 [1] [nM] | IC50 (Kv1.3) [nM] | IC50 (Rat whole blood) [nM] | further results
1 | CCCC[C@@H]1NC(=O)[C@@H]2CSSC[C@H](NC(=O)[C@H](CCCNC(=N)N)NC(=O)[C@H](CCCC)NC(=O)[C@H](CC(=O)O)NC(=O)[C@H](CCCC)NC(=O)[C@@H](N)C(C)C)C(=O)N[C@@H](CO)C(=O)N[C@@H](C)C(=O)N[C@@H](CO)C(=O)N[C@@H](C(C)C)C(=O)N[C@@H](CCC(=O)O)C(=O)N[C@H]3CSSC[C@H](NC(=O)[C@H](CCCCN)NC(=O)[C@H](CCCCN)NC(=O)[C@H](CC(N)=O)NC1=O)C(=O)N[C@@H](CCCCN)C(=O)N[C@H](C(=O)N[C@@H](Cc1ccc(O)cc1)C(=O)N1CCC[C@H]1C(=O)N[C@@H](CCCNC(=N)N)C(N)=O)CSSC[C@H](NC(=O)[C@H](CCCCN)NC(=O)[C@H](CCC(N)=O)NC(=O)[C@H](CCCCN)NC3=O)C(=O)N[C@@H](CC(C)C)C(=O)N[C@@H](CCCCN)C(=O)N[C@@H](C)C(=O)N[C@@H]([C@@H](C)CC)C(=O)NCC(=O)N[C@@H](CO)C(=O)N[C@@H]([C@@H](C)CC)C(=O)N[C@@H](Cc1ccccc1)C(=O)NCC(=O)N[C@@H](CCCCN)C(=O)N2 [Compound 67] (H-V[Nle]D[Nle]RCSASVECKQKCLKAIGSIFGKC[Nle]NKKCKCYPR-NH2; disulfide 6-27, 12-32, 16-34) | 0.12 | 0.32 | ≤ 1 | –
2 | CC[C@H](C)[C@H](NC(=O)[C@H](C)NC(=O)[C@H](C)NC(=O)[C@H](C)N)C(=O)N[C@@H](CO)C(=O)N[C@H]1CSSC[C@@H]2NC(=O)[C@H](CCCCN)NC(=O)CNC(=O)[C@H](CC(N)=O)NC(=O)[C@H](CCCCN)NC(=O)[C@@H]3CSSC[C@@H](C(N)=O)NC(=O)[C@H](Cc4ccc(O)cc4)NC(=O)[C@H](Cc4ccc(O)cc4)NC(=O)[C@@H]4CSSC[C@H](NC(=O)[C@H](CCCCN)NC(=O)[C@@H]5CCCN5C(=O)[C@@H]5CCCN5C(=O)[C@H](CSSC[C@H](NC(=O)[C@H](CCCCN)NC(=O)[C@H](CCCNC(=N)N)NC(=O)[C@H](CC(N)=O)NC(=O)[C@H](CCSC)NC2=O)C(=O)N[C@@H](CCCCN)C(=O)N4)NC(=O)[C@H](CCC(=O)O)NC(=O)[C@@H]2CCCN2C(=O)[C@H](CO)NC(=O)CNC(=O)[C@H](C(C)C)NC1=O)C(=O)N[C@@H](CCCNC(=N)N)C(=O)N[C@@H](C)C(=O)N[C@@H](CCC(N)=O)C(=O)NCC(=O)N3 [Vm24, reference compound] | – | 0.15 | – | IC50 (Kv1.1; CHO cells, whole-cell patch clamp, read-out: Potency IC50 (nM) Kv1.1): 0.097 nM; Selectivity Kv1.1/Kv1.3 (Kv1.1; ratio IC50[Kv1.1]/IC50[Kv1.3]): 0.65; IC50 (Kv1.2): 4.7 nM; Selectivity Kv1.2/Kv1.3 (Kv1.2; ratio IC50[Kv1.2]/IC50[Kv1.3]): 31; IC50 (Kv1.6): 21 nM; Selectivity Kv1.6/Kv1.3 (Kv1.6; ratio IC50[Kv1.6]/IC50[Kv1.3]): 139
3 | CC[C@H](C)[C@@H]1NC(=O)[C@@H](NC(=O)[C@H](CO)NC(=O)[C@@H](N)CCCNC(=N)N)CSSC[C@@H](C(=O)O)NC(=O)[C@H]([C@@H](C)O)NC(=O)CNC(=O)[C@@H]2CSSC[C@@H]3NC(=O)[C@H](CCC(N)=O)NC(=O)[C@H](Cc4ccccc4)NC(=O)[C@H](C)NC(=O)[C@H]([C@@H](C)O)NC(=O)[C@H](CSSC[C@H](NC(=O)[C@H](Cc4ccccc4)NC(=O)[C@H](CO)NC(=O)[C@H](CC(C)C)NC(=O)[C@H](CCCNC(=N)N)NC(=O)[C@H](Cc4ccc(O)cc4)NC(=O)[C@H](CCCCN)NC(=O)[C@H](CCSC)NC(=O)[C@H](CO)NC(=O)[C@H](Cc4cnc[nH]4)NC(=O)[C@H](CCCCN)NC3=O)C(=O)N[C@@H](CCCNC(=N)N)C(=O)N[C@@H](CCCCN)C(=O)N[C@@H]([C@@H](C)O)C(=O)N2)NC(=O)[C@H](CCCNC(=N)N)NC(=O)[C@H](CO)NC(=O)[C@H](CCCCN)NC(=O)[C@@H]2CCCN2C(=O)[C@H]([C@@H](C)CC)NC(=O)[C@H]([C@@H](C)O)NC(=O)[C@H](CC(=O)O)NC1=O [ShK, reference compound] | – | – | – | IC50 (Kv1.2): 11 nM; IC50 (Kv1.6): 0.19 nM
4 | CCCC[C@@H]1NC(=O)[C@@H]2CSSC[C@H](NC(=O)[C@H](CCCNC(=N)N)NC(=O)[C@H](CCCC)NC(=O)[C@H](CC(=O)O)NC(=O)[C@H](CCCC)NC(=O)[C@@H](N)CO)C(=O)N[C@@H](CO)C(=O)N[C@@H](C)C(=O)N[C@@H](CO)C(=O)N[C@@H](C(C)C)C(=O)N[C@@H](CCC(=O)O)C(=O)N[C@H]3CSSC[C@H](NC(=O)[C@H](CCCCN)NC(=O)[C@H](CCCCN)NC(=O)[C@H](CC(N)=O)NC1=O)C(=O)N[C@@H](CCCCN)C(=O)N[C@H](C(=O)N[C@@H](Cc1ccc(O)cc1)C(=O)N1CCC[C@H]1C(=O)N[C@@H](CCCNC(=N)N)C(N)=O)CSSC[C@H](NC(=O)[C@H](CCCCN)NC(=O)[C@H](CCC(N)=O)NC(=O)[C@H](CCCCN)NC3=O)C(=O)N[C@@H](CC(C)C)C(=O)N[C@@H](CCCCN)C(=O)N[C@@H](C)C(=O)N[C@@H]([C@@H](C)CC)C(=O)NCC(=O)N[C@@H](CO)C(=O)N[C@@H]([C@@H](C)CC)C(=O)N[C@@H](Cc1ccccc1)C(=O)NCC(=O)N[C@@H](CCCCN)C(=O)N2 [Compound 66] (H-S[Nle]D[Nle]RCSASVECKQKCLKAIGSIFGKC[Nle]NKKCKCYPR-NH2; disulfide 6-27, 12-32, 16-34) | 0.12 | 0.18 | ≤ 1 | –
5 | CC[C@H](C)[C@@H]1NC(=O)[C@H](C)NC(=O)[C@H](CCCCN)NC(=O)[C@H](Cc2ccc(O)cc2)NC(=O)[C@@H]2CSSC[C@@H](C(=O)N[C@@H](Cc3ccc(O)cc3)C(=O)N3CCC[C@H]3C(=O)N[C@@H](CCCNC(=N)N)C(N)=O)NC(=O)[C@H](CCCCN)NC(=O)[C@@H]3CSSC[C@H](NC(=O)[C@H](CCC(=O)O)NC(=O)[C@H](C(C)C)NC(=O)[C@H](CO)NC(=O)[C@H](C)NC(=O)[C@H](CO)NC(=O)[C@@H](NC(=O)[C@H](CCCNC(=N)N)NC(=O)[C@H](CCSC)NC(=O)[C@H](CC(=O)O)NC(=O)[C@H](CCSC)NC(=O)[C@@H](N)CC(N)=O)CSSC[C@H](NC(=O)[C@H](CCCCN)NC(=O)CNC(=O)[C@H](Cc4ccccc4)NC(=O)[C@H]([C@@H](C)CC)NC(=O)[C@H](CO)NC(=O)CNC1=O)C(=O)N[C@@H](CCSC)C(=O)N[C@@H](CC(N)=O)C(=O)N[C@@H](CCCCN)C(=O)N[C@@H](CCCCN)C(=O)N3)C(=O)N[C@@H](CCCCN)C(=O)N[C@@H](CCC(N)=O)C(=O)N[C@@H](CCCCN)C(=O)N2 [Compound 50] (H-NMDMRCSASVECKQKCYKAIGSIFGKCMNKKCKCYPR-NH2; disulfide 6-27, 12-32, 16-34) | 0.16 | 0.27 | – | –
6 | CC[C@H](C)[C@@H]1NC(=O)[C@H](C)NC(=O)[C@H](CCCCN)NC(=O)[C@H](CC(C)C)NC(=O)[C@@H]2CSSC[C@@H](C(=O)N[C@@H](Cc3ccc(O)cc3)C(=O)N3CCC[C@H]3C(=O)N[C@@H](CCCNC(=N)N)C(N)=O)NC(=O)[C@H](CCCCN)NC(=O)[C@@H]3CSSC[C@H](NC(=O)[C@H](CCC(=O)O)NC(=O)[C@H](C(C)C)NC(=O)[C@H](CO)NC(=O)[C@H](C)NC(=O)[C@H](CO)NC(=O)[C@@H](NC(=O)[C@H](CCCNC(=N)N)NC(=O)[C@H](CCSC)NC(=O)[C@H](CC(=O)O)NC(=O)[C@H](CCSC)NC(=O)[C@@H](N)CC(N)=O)CSSC[C@H](NC(=O)[C@H](CCCCN)NC(=O)CNC(=O)[C@H](Cc4ccccc4)NC(=O)[C@H]([C@@H](C)CC)NC(=O)[C@H](CO)NC(=O)CNC1=O)C(=O)N[C@@H](CCSC)C(=O)N[C@@H](CC(N)=O)C(=O)N[C@@H](CCCCN)C(=O)N[C@@H](CCCCN)C(=O)N3)C(=O)N[C@@H](CCCCN)C(=O)N[C@@H](CC(C)C)C(=O)N[C@@H](CCCCN)C(=O)N2 [Compound 32] (H-NMDMRCSASVECKLKCLKAIGSIFGKCMNKKCKCYPR-NH2; disulfide 6-27, 12-32, 16-34) | 0.12 | 0.38 | ≤ 1 | –
7 | CCCC[C@@H]1NC(=O)[C@@H]2CSSC[C@H](NC(=O)[C@H](CCCNC(=N)N)NC(=O)[C@H](CCCC)NC(=O)[C@H](CC(=O)O)NC(=O)[C@H](CCCC)NC(=O)[C@@H](N)Cc3c[nH]cn3)C(=O)N[C@@H](CO)C(=O)N[C@@H](C)C(=O)N[C@@H](CO)C(=O)N[C@@H](C(C)C)C(=O)N[C@@H](CCC(=O)O)C(=O)N[C@H]3CSSC[C@H](NC(=O)[C@H](CCCCN)NC(=O)[C@H](CCCCN)NC(=O)[C@H](CC(N)=O)NC1=O)C(=O)N[C@@H](CCCCN)C(=O)N[C@H](C(=O)N[C@@H](Cc1ccc(O)cc1)C(=O)N1CCC[C@H]1C(=O)N[C@@H](CCCNC(=N)N)C(N)=O)CSSC[C@H](NC(=O)[C@H](CCCCN)NC(=O)[C@H](CCC(N)=O)NC(=O)[C@H](CCCCN)NC3=O)C(=O)N[C@@H](CC(C)C)C(=O)N[C@@H](CCCCN)C(=O)N[C@@H](C)C(=O)N[C@@H]([C@@H](C)CC)C(=O)NCC(=O)N[C@@H](CO)C(=O)N[C@@H]([C@@H](C)CC)C(=O)N[C@@H](Cc1ccccc1)C(=O)NCC(=O)N[C@@H](CCCCN)C(=O)N2 [Compound 64] (H-H[Nle]D[Nle]RCSASVECKQKCLKAIGSIFGKC[Nle]NKKCKCYPR-NH2; disulfide 6-27, 12-32, 16-34) | 0.12 | 0.25 | – | –
